According to patent US4704405A (priority 1986, dated 1987):

What was measured:
[1] = in vivo
[2] = cited from earlier work; for bioavailability of the drug: tromethamine or sodium salts, British Pat. No. 2,059,768, German Pat. No. 134,672

For `CC1=C(CC(=O)O)c2cc(F)ccc2/C1=C\c1ccc([S+](C)[O-])cc1` (centres unmarked) [sodium sulindac], the absorption of sulindac [1] was “Extremely rapid absorption”.
For `CC1=C(CC(=O)O)c2cc(F)ccc2C1=Cc1ccc([S+](C)[O-])cc1` (centres unmarked) [sulindac], the duration of action ([2]; NSAID, reduction-oxidation prodrug) is listed as “long duration of action” and the onset of activity ([2]; sulindac, commercialized as CLINORIL) is listed as “slow onset of activity”.
In the case of `CC(=O)Oc1ccccc1C(=O)O` [aspirin], the “bioavailability of the drug” value [2] is listed as “enhanced bioavailability”.
For `COc1ccc2c(c1)c(CC(=O)O)c(C)n2C(=O)c1ccc(Cl)cc1` [indomethacin], the “bioavailability of the drug” value [2] is listed as “enhanced bioavailability”.
